Test results: patent US20250177341A1, “DIETARY TRIPROPIONIN SUPPLEMENTATION TO REDUCE ADIPOSITY AND IMPROVE GLUCOSE HOMEOSTASIS” (Wisconsin Alumni Research Foundation, priority 2023, published 2025)

Tests used:
[1] = Experiment 3: insulin tolerance test in humanized gnotobiotic mice; conditions: mouse, in vivo
Text: We colonized germ-free mice with a complex community of human fecal microbiota, induced metabolic dysregulation though feeding a high-fat diet for 8 weeks, and subjected the mice to a tripropionin- or glycerol-supplemented diet (FIG. 3A).
Experiment 3: Germ-free (GF) male mice (C57BL/6J) were housed in sterile isolators and maintained on autoclaved chow (LabDiet 5021; LabDiet, St. Louis, MO) and sterile water ad libitum. GF cages contained Alpha-dri® (Shepherd Specialty Papers, Kalamazoo, MI) bedding along with paper huts (Bio-Huts, Bio-Serv, Flemington, NJ) and ALPHA-twist™ (Shepherd Specialty Papers) for enrichment. Monthly tests were conducted in each isolator to confirm GF status of the mice. These included a growth test of feces in rich media for 7 days at 37° C. and checking for amplification of the 16S rRNA gene using universal primers. At 5 and 6 weeks of age mice were placed in Allentown Sentry SPP IVC rack system (Allentown Inc., Allentown, NJ) and fed a HFD (TD08811, Envigo). Mice were then colonized with fecal microbiota from a human donor fecal specimen via gavage with a fecal slurry. […]
The ITT was performed one week after the OGTT. […] Blood glucose levels were monitored as described for OGTT. Insulin tolerance curves are expressed as the relative ratio of blood glucose from the baseline.

[2] = Experiment 3: gnotobiotic mice colonized with human fecal microbiota, body weight; conditions: mouse, in vivo
Text: To check whether the effects of tripropionin supplementation are consistent in the context of a human microbiome, we used a gnotobiotic mouse model colonized with human fecal microbiota. We colonized germ-free mice with a complex community of human fecal microbiota, induced metabolic dysregulation though feeding a high-fat diet for 8 weeks, and subjected the mice to a tripropionin- or glycerol-supplemented diet (FIG. 3A).
At 5 and 6 weeks of age mice were placed in Allentown Sentry SPP IVC rack system (Allentown Inc., Allentown, NJ) and fed a HFD (TD08811, Envigo). Mice were then colonized with fecal microbiota from a human donor fecal specimen via gavage with a fecal slurry. The fecal slurry was prepared by collecting 200-500 mg of frozen feces and adding it to anaerobic CMM broth in an anaerobic chamber. The mixture was vortexed for 1 minute and then placed on ice until gavaging (less than 1 hour after preparation). Mice were maintained on the HFD for an additional 6 weeks before being switched to either the glycerol or tripropionin diets (n=4-5 per group). Four weeks after diet change mice were subjected to an OGTT followed by an ITT a week later. Mice were euthanized one week after ITT.

[3] = Experiment 2: obese HFD-fed mice switched to tripropionin diet, body weight and body composition; conditions: mouse, in vivo
Procedure: (§1) We next tested the anti-adipogenic effects of tripropionin in metabolically challenged mice. To do this, we fed a HFD for 10 weeks to induce insulin resistance and obesity and then switched mice to either the tripropionin or glycerol diet for 5 weeks (FIG. 2A). […] Mice were monitored in metabolic cages to measure respiratory quotient (RQ) for the initial 48 hours after diet change.
(§2) Experiment 2: Male C57BL/6J mice were ordered from Jackson Laboratories (Bar Harbor, ME) maintained on a chow diet and housed in a chlorinated water rack system. Mice were switched to the HFD and maintained on this diet for 10 weeks at which point mice were fed either the glycerol or the tripropionin diets (n=6 mice per group). Mice were transferred to singly housed metabolic cages, as described above, to measure respiratory quotient, body weight, food intake, and energy expenditure. Five weeks after diet change mice underwent an OGTT and then an ITT one week later.

[4] = Experiment 2: respiratory quotient in metabolic cages; set-up: species or system mice; conditions: mouse, in vivo
Procedure: as §1, §2

[5] = Experiment 1: insulin tolerance test; set-up: species or system mice; conditions: mouse, in vivo
Text: Experiment 1: Male C57BL/6J mice were ordered from Jackson Laboratories (Bar Harbor, ME) maintained on chow (Teklad 8604, Inotiv, Madison, WI) and housed in a chlorinated water rack system in cages with cornhusk bedding and ALPHA-twist™. At 11 weeks of age, the mice were switched to either a glycerol (TD220541) or tripropionin diet (TD220540) from Envigo (Madison, WI) with a sample size of 6 mice per treatment. […] One week later, mice were subjected to an ITT. […] Mice were sacrificed at 24 weeks of age.
The ITT was performed one week after the OGTT. Mice were fasted for 4 hours in fresh cages and baseline blood glucose levels were taken from tail blood. Insulin was administered at a rate of 0.75 IU per Kg body weight via IP injection. Blood glucose levels were monitored as described for OGTT. Insulin tolerance curves are expressed as the relative ratio of blood glucose from the baseline.

[6] = Experiment 1: oral glucose tolerance test; type: in vivo; conditions: four weeks after diet change, vs glycerol-fed mice
Procedure: To assess the effect of tripropionin on adiposity and glucose homeostasis, we fed 11-week-old male C57BL/6J mice a high-fat diet (45% kcal from fat) (HFD) supplemented with either 5.3% tripropionin (w/w) or 5.3% glycerol as a control. Mice were maintained on these diets for 13 weeks, during which food consumption and body weight were measured and an oral glucose tolerance test (OGTT) and insulin tolerance test (ITT) were performed (FIG. 1A). Additionally, body composition was monitored via NMR during the last 2 weeks before sacrifice.
Experiment 1: Male C57BL/6J mice were ordered from Jackson Laboratories (Bar Harbor, ME) maintained on chow (Teklad 8604, Inotiv, Madison, WI) and housed in a chlorinated water rack system in cages with cornhusk bedding and ALPHA-twist™. […] Mice were maintained on their respective diets for an additional 8 weeks and then transferred to single-housed metabolic cages (Promethion Core system, Sable Systems International, North Las Vegas, NV) where body weight food intake and activity level was monitored. During this period, fat and lean mass were monitored using nuclear magnetic resonance (NMR) machine fitted for mice (LF90 Body Composition Analyzer, Bruker Corporation, Billerica, MA). […]
Prior to OGTT, mice were placed in fresh cages fasted for 4 hours. […] Blood glucose levels were measured at regular intervals between 15 and 120 minutes.

[7] = Experiment 1: high-fat diet supplemented with tripropionin, body weight, food consumption, body composition by NMR; set-up: species or system mice; conditions: mouse, in vivo
Text: Experiment 1: Male C57BL/6J mice were ordered from Jackson Laboratories (Bar Harbor, ME) maintained on chow (Teklad 8604, Inotiv, Madison, WI) and housed in a chlorinated water rack system in cages with cornhusk bedding and ALPHA-twist™. At 11 weeks of age, the mice were switched to either a glycerol (TD220541) or tripropionin diet (TD220540) from Envigo (Madison, WI) with a sample size of 6 mice per treatment. […] Mice were maintained on their respective diets for an additional 8 weeks and then transferred to single-housed metabolic cages (Promethion Core system, Sable Systems International, North Las Vegas, NV) where body weight food intake and activity level was monitored. During this period, fat and lean mass were monitored using nuclear magnetic resonance (NMR) machine fitted for mice (LF90 Body Composition Analyzer, Bruker Corporation, Billerica, MA). […]

CCC(=O)OCC(COC(=O)CC)OC(=O)CC [tripropionin, 2,3-di(propanoyloxy) propyl propanoate]
insulin sensitivity (ITT) [1]: improved insulin sensitivity
body weight [2]: reduced body weight
body weight [3]: reduced body weight
fat mass (NMR) [3]: reduction in fat mass
onset of body weight reduction [3]: significant differences observed just three days after the diet change
respiratory quotient (RQ) [4]: reduced
insulin sensitivity (ITT) [5]: improved insulin sensitivity
glucose tolerance (OGTT) [6]: improved glucose tolerance
body weight [7]: significantly reduced body weight
fat mass (NMR) [7]: primarily due to differences in fat mass
